Columns and labels:
PKA = PKA inhibitor test in ECIS/TER assay (HPAEC); type: cell-based, human; settings: H-89 pretreatment 30 min, then 50 μM β-NAD
Text: (§1) The barrier properties of endothelial cells monolayers were characterized using a highly sensitive electrical cell-substrate impedance sensing (ECIS) instrument to measure transendothelial electrical resistance (TER) as described (Birukova et al., 2004a. Microvasc Res 67(1):64-77; Kolosova et al., 2005, Circ Res 97(2):115-124). The TER data was normalized to the initial voltage.
To elucidate the signaling pathways involved in β-NAD-induced HPAEC TER increase, the cAMP-activated protein kinase A (PKA) and the nucleotide exchange protein directly activated by cAMP (EPAC) pathways were examined. Since activation of P2Y11 receptors may lead to the Gas-mediated pathway including direct stimulation of adenylate cyclase, elevation of cAMP levels and cAMP-dependent activation of PKA, a simple inhibitory test was performed to confirm an activation of PKA and its participation in β-NAD-induced HPAEC barrier enhancement. For this test, H-89, an inhibitor of PKA activity, was used in ECIS experiments. HPAEC were pre-treated with H-89 for 30 min and then challenged with β-NAD and the effect of β-NAD-mediated barrier enhancement was determined using TER measurement.

HPAEC monolayers = experiment: Transendothelial electrical resistance (TER) by ECIS in HPAEC monolayers; type: cell-based, human; settings: for TER of HPAEC monolayers after cytoskeleton-disrupting agent: agent alone, pretreatment 30 min
Description: Human pulmonary artery endothial cells (HPAEC) and EBM-2 complete medium were purchased from Lonza (Allendale, N.J.). HPAEC were cultured according to the manufacturer's protocol and utilized at early (3-6) passages.
as §1

LPS-induced ALI in mice = experiment: Evans Blue Dye-albumin (EBD) lung permeability; type: in vivo; settings: LPS alone treated mice; vehicle 4.57
Description: Mice were anesthetized with ketamine (150 mg/kg) and acetylpromazine (15 mg/kg) intraperitoneally (i.p.) before the exposure of the trachea via neck incision and intubation with 20-guage catheter and the right internal jugular vein was exposed via right chest incision for PBS or b-NAD installation. The mice were randomly divided into groups. LPS or sterile saline was instilled intratracheally (i.t.) via a 20-gauge catheter. Simultaneously, mice received either b-NAD (5.4 mg/kg, equivalent to final calculated plasma concentration […] or PBS in the control group intravenously (i.v.) through the internal jugular vein (IJ). The animals were allowed to recover for 18 hr. EBD was given through the IJ 2 hr prior to termination of the experiment. At termination, bronchoalveolar lavage (BAL) was collected. BAL was 1ml of 10% HBSS through the endotracheal catheter immediately on sacrifice with aspiration. BAL was immediately centrifuged and processed. After the BAL, ethylenediaminetetraacetic acid (EDTA) was used to flush the lungs of blood via the right heart ventricle and the lungs were then harvested. BAL and lungs were collected and stored at −70° C. for evaluation of lung injury.
Measurement of EBD concentration in the lungs was performed by injection of EBD (20 mg/kg) into the right internal jugular vein 2 hr before the termination of the experiment to assess the vascular leak. Lungs free of blood were weighed and snap frozen in liquid nitrogen. The left lung was weighed and homogenized, then incubated with two volumes of formamide (18 hr, 60° C.) and centrifuged (5000 g, 30 min, 20° C.). The extravasated EBD concentration (mg/g, lung) in the lung homogenate was calculated against a standard curve. In a separate experiment the EBD was injected into the right internal jugular vein as described above at 2 hrs prior to termination of the experiment and the left lung gross anatomy view was photographed with a Leica NCL150 Camera.

[1] = system: LPS-induced mortality in mice; experiment: LPS-induced mortality / survival; type: in vivo; settings: LPS alone, within four days
Description: Mice were injected with β-NAD (100 mg/kg, i.p) or vehicle (saline, i.p) 10 min after LPS (20 mg/kg, i.p) challenge. As a treatment strategy, β-NAD was given twice a day (i.p) for 4 days. […]

P2Y1 receptor = target: T1, P2Y1 receptor (Homo sapiens, UniProt P47900); experiment: P2Y1 receptor antagonist study (TER, HPAEC); type: cell-based; design: dose or concentration left out as unconfirmed; settings: MRS2279 pretreatment 30 min, then b-NAD
T1 construct: To deplete the mRNA content of endogenous P2Y1, P2Y11 or EPAC1; endogenous in cells; host or cells: HPAEC (human pulmonary artery endothelial cells)
Description: as §1
(§2) HPAEC were pretreated with receptor-specific antagonists, MRS2279 or NF157, for 30 min, and then challenged with […] b-NAD. TER was registered throughout to examine the barrier enhancement induced by b-NAD in the presence or absence of the antagonists.

P2Y11 receptor = target: T2, P2Y11 receptor (Homo sapiens, UniProt Q96G91); experiment: P2Y11 receptor antagonist study (TER, HPAEC); type: cell-based; settings: 1 mM NF157 pretreatment 30 min, then b-NAD
T2 construct: To deplete the mRNA content of endogenous P2Y1, P2Y11 or EPAC1; endogenous in cells; host or cells: HPAEC (human pulmonary artery endothelial cells)
T2 sequence (Q96G91 1-374): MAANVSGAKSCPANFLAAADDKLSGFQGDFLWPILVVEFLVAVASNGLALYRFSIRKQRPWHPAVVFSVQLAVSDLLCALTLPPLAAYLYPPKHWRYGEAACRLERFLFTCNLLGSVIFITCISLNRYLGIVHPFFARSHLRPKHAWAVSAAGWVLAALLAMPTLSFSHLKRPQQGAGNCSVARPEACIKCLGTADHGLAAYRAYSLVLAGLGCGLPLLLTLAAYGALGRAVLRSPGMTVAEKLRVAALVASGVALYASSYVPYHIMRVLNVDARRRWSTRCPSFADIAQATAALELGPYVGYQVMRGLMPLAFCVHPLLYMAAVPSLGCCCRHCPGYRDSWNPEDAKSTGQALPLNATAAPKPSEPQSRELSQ
Description: as §1, §2

T1 sequence (P47900 whole entry): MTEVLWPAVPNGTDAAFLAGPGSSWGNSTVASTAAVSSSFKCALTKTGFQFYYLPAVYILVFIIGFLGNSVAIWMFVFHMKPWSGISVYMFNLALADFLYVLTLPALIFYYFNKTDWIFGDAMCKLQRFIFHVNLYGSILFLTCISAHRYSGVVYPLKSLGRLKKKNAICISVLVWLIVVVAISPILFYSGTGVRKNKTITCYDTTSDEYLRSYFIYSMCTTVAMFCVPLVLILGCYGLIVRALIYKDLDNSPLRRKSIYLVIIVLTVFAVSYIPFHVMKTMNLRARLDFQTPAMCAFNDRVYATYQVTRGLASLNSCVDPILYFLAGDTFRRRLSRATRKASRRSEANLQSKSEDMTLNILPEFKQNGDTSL

For `O=S(=O)(NCCNC/C=C/c1ccc(Br)cc1)c1cccc2cnccc12` [H-89], which “effect of PKA inhibitor on β-NAD-induced TER increase” value (PKA) is on record?
Its value is “attenuated the β-NAD-induced HPAEC TER increase”.

With pneumolysin [PLY, reference compound] as the compound, how does the “decrease in TER from the baseline” value (HPAEC monolayers; PLY alone (125 ng/ml)) read?
Its value is about 80%.

`C=C1[C@@H](C)[C@H]2[C@H](Cc3ccccc3)NC(=O)[C@]23OC(=O)/C=C/[C@H](O)CCC[C@@H](C)C/C=C/[C@H]3[C@@H]1O` [cytochalasin B, reference compound] was tested. Which “TER of HPAEC monolayers after cytoskeleton-disrupting agent” value (HPAEC monolayers) did it give?
The value was “produced a prompt attenuation in TER”.

Which results are given for “lipopolysaccharide [LPS, reference compound]”?
decrease in TER from the baseline (HPAEC monolayers; LPS (100 ng/ml) alone): ~60%; EBD-albumin in lung (average) (LPS-induced ALI in mice): 16.81 µg/g; mortality [1]: 100%

How did the “TER of HPAEC monolayers after cytoskeleton-disrupting agent” value (HPAEC monolayers) turn out when `COC(=O)Nc1nc2ccc(C(=O)c3cccs3)cc2[nH]1` [nocodazole, reference compound] was run?
Its value is “compromises endothelial cell barrier integrity”.

With `CNc1nc(Cl)nc2c1ncn2[C@H]1C[C@@H](OP(=O)(O)O)[C@]2(COP(=O)(O)O)C[C@H]12` [MRS2279] as the compound, how does the “effect of P2Y1 antagonist on β-NAD-induced TER increase” value (P2Y1 receptor) read?
The value was “attenuated the β-NAD-induced TER increase”.

How did the “effect of P2Y11 antagonist on β-NAD-induced TER increase” value (P2Y11 receptor) turn out when `O=C(Nc1cccc(C(=O)Nc2cc(C(=O)Nc3ccc(S(=O)(=O)O)c4cc(S(=O)(=O)O)cc(S(=O)(=O)O)c34)ccc2F)c1)Nc1cccc(C(=O)Nc2cc(C(=O)Nc3ccc(S(=O)(=O)O)c4cc(S(=O)(=O)O)cc(S(=O)(=O)O)c34)ccc2F)c1` [NF157] was run?
Its value is “attenuated the β-NAD-induced TER increase more significantly”.
